Counter-ions that a name gives are not always drawn.
System: patients with type II diabetes
Assay: Clinical study on the combination of HMS5552 and metformin hydrochloride: blood glucose after the meal
Type: in vivo, human
Settings: 13 type II diabetes patients; oral; metformin hydrochloride 500 mg (day 3), 500 mg + HMS5552 50 mg (day 8), HMS5552 50 mg (day 13); meal 30 minutes after administration
Method: 13 patients with type II diabetes were enrolled, who have been given a stable dose of metformin hydrochloride at 1000 mg/day for at least 14 days at the time of enrollment. On the 1st and 2nd day of the study, 500 mg of metformin hydrochloride was given orally daily both in the morning and in the evening; on the 3rd day, 500 mg of metformin hydrochloride was given once in the morning; on each day of the 4th to 7th day, 500 mg of metformin hydrochloride and 50 mg of HMS5552 were given daily both in the morning and in the evening; on the 8th day, 500 mg of metformin hydrochloride and 50 mg of HMS5552 were given once in the morning; on each day of 9th to 12th day, 50 mg of HMS5552 was given orally daily both in the morning and in the evening; and on the 13th day, 50 mg of HMS5552 was given once in the morning. Meals were taken 30 minutes after each administration of the test drugs.
Plasma samples were collected after administration on the 3rd, 8th and 13th day, and the blood glucose concentrations were analyzed.

| Structure (SMILES) | area under the curve for blood glucose between 0 and 4 hours after the meal (AUECO-4h) [mg·h/dL] |
| --- | --- |
| CC(C)C[C@@H](C(=O)Nc1ccn(C[C@@H](O)CO)n1)N1CC(Oc2ccccc2Cl)=CC1=O [HMS5552, (S)-2-[4-(2-chloro-phenoxy)-2-oxo-2,5-dihydro-pyrrol-1-yl]-4-methyl-pentanoic acid [1-((R)-2,3-dihydroxy-propyl)-1H-pyrazol-3-yl]-amide] | 72.96 |
| CN(C)C(=N)N=C(N)N [metformin, metformin hydrochloride] | 110.2 |

From US12318366B2, “Pharmaceutical combination and composition, and combination preparation containing glucokinase activator and biguanide hypoglycemic drug as well as preparation method and use thereof” (HUA Medicine (Shanghai) Ltd., priority 2018, dated 2025)
